Source: ChEMBL document CHEMBL1133403 (Bioorg Med Chem Lett, 2000)
Activity calls are given as the source filed them. No cut-off for these calls is given here.

Legend:
Androgen receptor = molecular target: T1, Androgen receptor (Homo sapiens, UniProt P10275); test: Cross-reactivity as binding to human androgen receptor (hAR); format: functional
T1 sequence (P10275 whole entry): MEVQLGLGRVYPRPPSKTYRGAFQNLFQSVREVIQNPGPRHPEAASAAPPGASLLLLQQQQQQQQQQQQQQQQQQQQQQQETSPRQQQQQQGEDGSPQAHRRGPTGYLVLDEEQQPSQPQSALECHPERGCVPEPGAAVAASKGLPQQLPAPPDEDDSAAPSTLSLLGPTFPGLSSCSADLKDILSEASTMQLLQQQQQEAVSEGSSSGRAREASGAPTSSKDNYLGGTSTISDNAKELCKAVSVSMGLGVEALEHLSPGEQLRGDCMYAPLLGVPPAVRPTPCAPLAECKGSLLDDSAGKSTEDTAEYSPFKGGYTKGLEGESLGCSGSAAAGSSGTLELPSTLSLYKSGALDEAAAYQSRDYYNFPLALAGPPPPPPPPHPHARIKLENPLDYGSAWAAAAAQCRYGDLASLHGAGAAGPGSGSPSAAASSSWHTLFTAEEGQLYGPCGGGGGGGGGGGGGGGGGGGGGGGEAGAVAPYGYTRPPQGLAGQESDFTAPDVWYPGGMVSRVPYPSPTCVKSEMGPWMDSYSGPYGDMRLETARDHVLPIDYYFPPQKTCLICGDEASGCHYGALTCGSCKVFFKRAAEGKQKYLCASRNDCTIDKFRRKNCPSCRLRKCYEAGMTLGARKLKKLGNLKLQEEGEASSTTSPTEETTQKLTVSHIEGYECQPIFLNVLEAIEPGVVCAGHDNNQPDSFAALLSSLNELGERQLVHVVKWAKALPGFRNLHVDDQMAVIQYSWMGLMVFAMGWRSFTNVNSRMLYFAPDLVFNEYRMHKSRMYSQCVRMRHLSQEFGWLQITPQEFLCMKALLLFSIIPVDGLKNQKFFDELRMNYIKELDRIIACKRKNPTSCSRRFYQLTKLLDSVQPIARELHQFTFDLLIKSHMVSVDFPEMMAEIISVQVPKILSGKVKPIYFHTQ

[1] = molecular target: T2, Glucocorticoid receptor (Homo sapiens) (UniProt P04150); test: Percent inhibition of glucocorticoid receptor transcriptional activity at Dexamethasone EC50; NA=not active; format: functional
T2 sequence (whole entry): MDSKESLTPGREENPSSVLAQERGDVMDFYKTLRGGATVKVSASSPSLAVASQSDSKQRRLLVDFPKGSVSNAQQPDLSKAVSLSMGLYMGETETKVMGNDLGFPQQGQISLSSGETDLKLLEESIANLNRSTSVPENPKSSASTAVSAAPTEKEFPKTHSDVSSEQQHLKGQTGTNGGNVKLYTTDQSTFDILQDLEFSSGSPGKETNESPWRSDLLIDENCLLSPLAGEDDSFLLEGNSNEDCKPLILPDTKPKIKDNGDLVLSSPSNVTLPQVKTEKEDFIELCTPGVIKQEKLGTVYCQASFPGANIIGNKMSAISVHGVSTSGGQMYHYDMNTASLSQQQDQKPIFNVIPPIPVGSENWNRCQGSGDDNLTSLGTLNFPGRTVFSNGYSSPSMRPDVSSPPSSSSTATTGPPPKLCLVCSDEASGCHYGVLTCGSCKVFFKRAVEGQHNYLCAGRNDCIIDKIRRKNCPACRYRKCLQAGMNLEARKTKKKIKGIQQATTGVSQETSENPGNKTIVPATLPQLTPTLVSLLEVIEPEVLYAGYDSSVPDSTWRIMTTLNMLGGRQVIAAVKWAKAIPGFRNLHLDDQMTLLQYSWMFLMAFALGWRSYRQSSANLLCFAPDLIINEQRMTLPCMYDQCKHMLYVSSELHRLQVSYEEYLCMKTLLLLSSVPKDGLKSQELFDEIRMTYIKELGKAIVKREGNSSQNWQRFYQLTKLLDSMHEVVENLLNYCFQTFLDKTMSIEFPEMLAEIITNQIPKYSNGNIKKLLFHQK

Progesterone receptor [2] = molecular target: T3, Progesterone receptor (Homo sapiens, UniProt P06401); test: Human progesterone receptor (hPR) agonist activity using cotransfection assay in CV-1 cells.; format: functional, cell-based
T3 sequence (P06401 whole entry): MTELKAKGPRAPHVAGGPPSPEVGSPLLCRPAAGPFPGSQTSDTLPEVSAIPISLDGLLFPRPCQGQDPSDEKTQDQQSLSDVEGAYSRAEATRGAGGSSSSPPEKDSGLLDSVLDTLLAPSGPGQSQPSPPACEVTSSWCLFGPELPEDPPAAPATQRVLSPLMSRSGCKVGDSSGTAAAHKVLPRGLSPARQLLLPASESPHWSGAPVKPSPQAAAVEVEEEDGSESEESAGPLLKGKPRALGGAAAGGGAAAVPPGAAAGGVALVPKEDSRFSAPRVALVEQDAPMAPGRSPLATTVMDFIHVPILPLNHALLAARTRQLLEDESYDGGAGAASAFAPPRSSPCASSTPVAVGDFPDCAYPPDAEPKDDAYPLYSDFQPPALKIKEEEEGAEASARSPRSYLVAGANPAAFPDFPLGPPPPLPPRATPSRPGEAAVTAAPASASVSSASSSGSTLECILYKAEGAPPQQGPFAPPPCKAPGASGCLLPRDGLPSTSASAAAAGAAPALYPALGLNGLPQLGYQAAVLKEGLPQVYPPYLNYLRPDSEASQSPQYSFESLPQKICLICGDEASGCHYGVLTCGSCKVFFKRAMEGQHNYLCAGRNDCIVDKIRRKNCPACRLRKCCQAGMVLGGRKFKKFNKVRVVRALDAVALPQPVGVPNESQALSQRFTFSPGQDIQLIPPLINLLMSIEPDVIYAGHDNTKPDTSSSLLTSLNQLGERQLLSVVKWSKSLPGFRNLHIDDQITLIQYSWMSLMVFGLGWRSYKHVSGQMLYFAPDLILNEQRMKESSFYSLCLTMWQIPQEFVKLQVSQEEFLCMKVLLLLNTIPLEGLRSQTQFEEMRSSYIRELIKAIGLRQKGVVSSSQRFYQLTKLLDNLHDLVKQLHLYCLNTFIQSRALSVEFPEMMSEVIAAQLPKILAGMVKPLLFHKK

Progesterone receptor [3] = molecular target: T3, Progesterone receptor; test: Antagonist activity against human progesterone receptor (hPR) in T47D human breast cancer cell line; format: functional, cell-based
Progesterone receptor [4] = molecular target: T3, Progesterone receptor; test: Antagonist activity against human progesterone receptor (hPR) using cotransfection assay in CV-1 cells; format: functional, cell-based

- IC50 (Androgen receptor): 1460 nM
- Efficacy [1]: inactive
- EC50 (Progesterone receptor [2]): Not Active
- IC50 (Progesterone receptor [3]): 70 nM
- IC50 (Progesterone receptor [4]): 31 nM
Compound: CC1=CC(C)(C)Nc2ccc(-c3ccc([N+](=O)[O-])s3)cc21
